Residues, ends and D or L forms follow the SMILES beside them.
What was measured:
Experiment in all cases: In-house protein microarrays (with or without 5 mM DTT), protein named per line
Type in all cases: binding
[1] = biological target: T1, SH2 and PTB domains (Homo sapiens, UniProt Q8N5H7); settings: protein SH2D3C, array fabrication # 39329
T1 construct: thioredoxin; made in house; host or cells: BL21(DE3)pLysS E. coli
Method in brief: (§1)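 Recombinant domains (~40 µM) spotted in duplicate on aldehyde slides, quenched 1 h at room temperature in HEPES/KCl/Tween-20 buffer pH 7.8 with 5 mM DTT and 1% BSA, then probed with rhodamine-labeled peptide. Thioredoxin-subtracted mean fluorescence fitted for KD.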

[2] = biological target: T2, SH2 and PTB domains (Homo sapiens, UniProt P06239); settings: protein LCK
T2 construct: thioredoxin; made in house; host or cells: BL21(DE3)pLysS E. coli
T2 sequence (P06239 whole entry, the tested form may be a part): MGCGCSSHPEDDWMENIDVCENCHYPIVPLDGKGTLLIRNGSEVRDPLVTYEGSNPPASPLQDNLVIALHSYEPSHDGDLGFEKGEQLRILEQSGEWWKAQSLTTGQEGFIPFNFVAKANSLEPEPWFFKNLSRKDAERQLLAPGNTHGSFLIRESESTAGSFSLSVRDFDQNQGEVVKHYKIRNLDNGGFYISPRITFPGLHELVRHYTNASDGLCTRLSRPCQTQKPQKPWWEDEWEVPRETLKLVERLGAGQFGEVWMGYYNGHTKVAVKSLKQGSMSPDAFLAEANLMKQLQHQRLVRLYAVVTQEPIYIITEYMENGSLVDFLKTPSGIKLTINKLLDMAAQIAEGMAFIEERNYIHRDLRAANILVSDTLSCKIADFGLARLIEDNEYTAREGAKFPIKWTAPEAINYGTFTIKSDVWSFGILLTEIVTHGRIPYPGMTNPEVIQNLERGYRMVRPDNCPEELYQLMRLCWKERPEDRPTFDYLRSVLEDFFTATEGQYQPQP
Method in brief: as §1

[3] = biological target: T3, SH2 and PTB domains (Homo sapiens, UniProt O75815); settings: protein BCAR3; PM assay replicate # 39337; array fabrication # 39329
T3 construct: thioredoxin; made in house; host or cells: BL21(DE3)pLysS E. coli
T3 sequence (O75815 whole entry, the tested form may be a part): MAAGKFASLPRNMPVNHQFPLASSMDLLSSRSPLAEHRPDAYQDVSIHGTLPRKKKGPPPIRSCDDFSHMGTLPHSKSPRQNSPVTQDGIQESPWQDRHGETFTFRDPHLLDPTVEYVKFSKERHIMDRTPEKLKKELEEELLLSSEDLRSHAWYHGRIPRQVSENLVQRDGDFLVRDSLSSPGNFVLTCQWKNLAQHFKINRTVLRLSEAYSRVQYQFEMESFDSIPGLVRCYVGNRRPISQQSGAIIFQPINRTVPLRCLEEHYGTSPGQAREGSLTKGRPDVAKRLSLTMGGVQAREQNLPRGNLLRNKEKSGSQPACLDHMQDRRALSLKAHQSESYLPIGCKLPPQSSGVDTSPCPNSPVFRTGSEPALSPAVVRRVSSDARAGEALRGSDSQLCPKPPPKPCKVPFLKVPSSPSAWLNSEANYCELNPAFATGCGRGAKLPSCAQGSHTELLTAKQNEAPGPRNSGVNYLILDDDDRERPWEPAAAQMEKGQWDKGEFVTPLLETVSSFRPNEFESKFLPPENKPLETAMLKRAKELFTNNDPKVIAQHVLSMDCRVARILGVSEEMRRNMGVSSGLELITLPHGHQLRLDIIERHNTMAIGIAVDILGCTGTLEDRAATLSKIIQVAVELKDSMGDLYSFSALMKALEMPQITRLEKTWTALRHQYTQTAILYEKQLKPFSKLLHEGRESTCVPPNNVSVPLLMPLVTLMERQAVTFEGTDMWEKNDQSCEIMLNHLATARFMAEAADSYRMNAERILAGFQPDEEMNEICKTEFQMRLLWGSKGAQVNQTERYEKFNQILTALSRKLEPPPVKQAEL
Method in brief: as §1

[4] = biological target: T4, SH2 and PTB domains (Homo sapiens, UniProt P15498); settings: protein VAV1, array fabrication # 39329
T4 construct: thioredoxin; made in house; host or cells: BL21(DE3)pLysS E. coli
T4 sequence (P15498 whole entry, the tested form may be a part): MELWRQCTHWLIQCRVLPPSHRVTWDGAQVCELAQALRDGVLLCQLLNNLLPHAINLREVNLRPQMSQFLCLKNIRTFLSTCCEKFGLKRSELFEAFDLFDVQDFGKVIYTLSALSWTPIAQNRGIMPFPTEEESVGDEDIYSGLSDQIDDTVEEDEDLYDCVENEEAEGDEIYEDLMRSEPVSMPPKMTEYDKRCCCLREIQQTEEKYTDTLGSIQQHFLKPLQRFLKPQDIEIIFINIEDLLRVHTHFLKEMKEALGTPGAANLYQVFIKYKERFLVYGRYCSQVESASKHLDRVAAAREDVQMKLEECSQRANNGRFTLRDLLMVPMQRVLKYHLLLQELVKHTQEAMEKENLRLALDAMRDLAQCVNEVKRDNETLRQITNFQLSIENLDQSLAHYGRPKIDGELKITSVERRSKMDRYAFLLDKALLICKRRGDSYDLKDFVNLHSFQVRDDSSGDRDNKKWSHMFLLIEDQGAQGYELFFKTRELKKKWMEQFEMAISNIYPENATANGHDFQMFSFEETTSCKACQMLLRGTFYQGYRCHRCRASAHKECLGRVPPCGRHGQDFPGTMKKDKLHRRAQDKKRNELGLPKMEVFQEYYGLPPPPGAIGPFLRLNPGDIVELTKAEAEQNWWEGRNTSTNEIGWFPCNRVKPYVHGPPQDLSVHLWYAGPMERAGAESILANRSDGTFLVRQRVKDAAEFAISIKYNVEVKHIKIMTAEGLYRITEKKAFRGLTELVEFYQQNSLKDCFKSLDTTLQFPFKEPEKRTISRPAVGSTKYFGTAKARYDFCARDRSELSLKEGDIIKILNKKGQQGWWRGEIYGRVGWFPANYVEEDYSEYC
Method in brief: as §1

[5] = biological target: T5, SH2 and PTB domains (Homo sapiens, UniProt Q13322); settings: protein GRB10; PM assay replicate # 39307; array fabrication # 39286
T5 construct: thioredoxin; made in house; host or cells: BL21(DE3)pLysS E. coli
T5 sequence (Q13322 whole entry, the tested form may be a part): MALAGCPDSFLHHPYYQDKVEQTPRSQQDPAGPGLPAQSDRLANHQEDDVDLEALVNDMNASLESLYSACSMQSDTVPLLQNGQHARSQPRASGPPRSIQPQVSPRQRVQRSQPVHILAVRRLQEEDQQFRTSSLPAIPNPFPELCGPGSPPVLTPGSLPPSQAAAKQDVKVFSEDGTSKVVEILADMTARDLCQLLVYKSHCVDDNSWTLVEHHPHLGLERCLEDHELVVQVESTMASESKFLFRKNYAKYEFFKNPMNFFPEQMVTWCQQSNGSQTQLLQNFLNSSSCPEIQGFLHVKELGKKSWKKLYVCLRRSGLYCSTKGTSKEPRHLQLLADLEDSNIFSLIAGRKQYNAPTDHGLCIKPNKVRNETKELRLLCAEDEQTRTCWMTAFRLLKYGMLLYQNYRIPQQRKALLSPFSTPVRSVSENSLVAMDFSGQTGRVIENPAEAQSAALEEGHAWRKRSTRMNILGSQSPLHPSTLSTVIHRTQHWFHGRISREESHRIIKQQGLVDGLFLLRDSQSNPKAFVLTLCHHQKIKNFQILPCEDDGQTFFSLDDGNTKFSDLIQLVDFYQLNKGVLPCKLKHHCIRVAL
Method in brief: as §1

[6] = biological target: T6, SH2 and PTB domains (Homo sapiens, UniProt Q8IZW8); settings: protein TNS4; PM assay replicate # 39307; array fabrication # 39286
T6 construct: thioredoxin; made in house; host or cells: BL21(DE3)pLysS E. coli
T6 sequence (Q8IZW8 19-715): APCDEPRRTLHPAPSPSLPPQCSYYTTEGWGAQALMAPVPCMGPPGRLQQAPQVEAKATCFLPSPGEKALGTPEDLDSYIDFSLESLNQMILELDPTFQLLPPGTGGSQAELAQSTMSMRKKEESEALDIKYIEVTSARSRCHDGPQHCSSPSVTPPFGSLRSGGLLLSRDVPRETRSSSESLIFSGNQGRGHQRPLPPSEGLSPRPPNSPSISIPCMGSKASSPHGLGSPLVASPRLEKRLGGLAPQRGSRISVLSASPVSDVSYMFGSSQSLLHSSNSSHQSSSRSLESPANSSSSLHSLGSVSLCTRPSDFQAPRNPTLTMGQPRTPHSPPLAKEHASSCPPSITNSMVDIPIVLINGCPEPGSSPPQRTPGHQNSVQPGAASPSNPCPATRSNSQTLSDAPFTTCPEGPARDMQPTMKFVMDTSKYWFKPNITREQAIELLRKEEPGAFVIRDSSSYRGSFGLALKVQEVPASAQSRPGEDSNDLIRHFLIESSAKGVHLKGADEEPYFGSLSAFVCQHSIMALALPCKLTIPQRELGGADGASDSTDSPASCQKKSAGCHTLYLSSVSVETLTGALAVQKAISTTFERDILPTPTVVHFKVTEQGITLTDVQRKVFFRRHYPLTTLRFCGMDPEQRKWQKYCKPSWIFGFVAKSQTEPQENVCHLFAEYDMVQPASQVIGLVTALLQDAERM
Method in brief: as §1

[7] = biological target: T7, SH2 and PTB domains (Homo sapiens, UniProt P46108); settings: protein CRK; PM assay replicate # 39307; array fabrication # 39286
T7 construct: thioredoxin; made in house; host or cells: BL21(DE3)pLysS E. coli
T7 sequence (P46108 whole entry, the tested form may be a part): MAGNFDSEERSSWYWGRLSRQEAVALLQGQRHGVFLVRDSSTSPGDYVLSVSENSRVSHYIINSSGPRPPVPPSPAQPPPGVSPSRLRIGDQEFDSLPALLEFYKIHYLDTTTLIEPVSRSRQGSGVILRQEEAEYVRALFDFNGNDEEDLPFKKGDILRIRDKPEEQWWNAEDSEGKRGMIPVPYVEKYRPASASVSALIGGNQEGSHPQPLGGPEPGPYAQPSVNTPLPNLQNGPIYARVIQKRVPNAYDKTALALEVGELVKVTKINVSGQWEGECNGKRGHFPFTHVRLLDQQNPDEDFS
Method in brief: as §1

T1 sequence (Q8N5H7 whole entry, the tested form may be a part): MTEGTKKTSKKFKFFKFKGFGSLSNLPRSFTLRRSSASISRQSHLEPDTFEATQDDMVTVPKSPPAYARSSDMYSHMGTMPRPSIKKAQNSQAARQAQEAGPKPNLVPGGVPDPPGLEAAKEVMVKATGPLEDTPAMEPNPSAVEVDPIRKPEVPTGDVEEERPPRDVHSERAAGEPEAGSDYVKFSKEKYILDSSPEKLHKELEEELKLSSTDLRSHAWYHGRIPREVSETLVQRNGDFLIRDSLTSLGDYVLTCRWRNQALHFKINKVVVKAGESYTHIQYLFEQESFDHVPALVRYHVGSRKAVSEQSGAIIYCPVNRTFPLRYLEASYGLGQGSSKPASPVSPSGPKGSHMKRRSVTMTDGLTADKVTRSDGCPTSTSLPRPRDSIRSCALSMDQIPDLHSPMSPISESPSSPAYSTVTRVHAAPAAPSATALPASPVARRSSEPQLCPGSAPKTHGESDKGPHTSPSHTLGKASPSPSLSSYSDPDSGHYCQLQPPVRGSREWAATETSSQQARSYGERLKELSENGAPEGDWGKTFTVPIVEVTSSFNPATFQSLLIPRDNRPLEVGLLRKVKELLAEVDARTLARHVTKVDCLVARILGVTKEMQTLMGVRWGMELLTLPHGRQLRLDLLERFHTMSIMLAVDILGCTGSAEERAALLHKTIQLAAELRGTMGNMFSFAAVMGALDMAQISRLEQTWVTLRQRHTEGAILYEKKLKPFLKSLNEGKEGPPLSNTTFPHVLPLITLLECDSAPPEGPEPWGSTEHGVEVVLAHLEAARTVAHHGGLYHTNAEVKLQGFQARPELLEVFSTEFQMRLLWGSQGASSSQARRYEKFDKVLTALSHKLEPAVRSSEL

Row | Structure (SMILES) | Kd ([1]; PM assay replicate # 39336) | Kd ([1]; PM assay replicate # 39337) | Kd ([2]; PM assay replicate # 39336, array fabrication # 39329) | Kd ([2]; PM assay replicate # 39337, array fabrication # 39329) | Kd ([2]; PM assay replicate # 39603, array fabrication # 39392) | Kd [3] | Kd ([4]; PM assay replicate # 39336) | Kd ([4]; PM assay replicate # 39337) | Kd [5] | Kd [6] | Kd [7]
1 | CC(C)C[C@H](NC(=O)[C@@H]1CCCN1C(=O)[C@H](C)NC(=O)[C@@H](NC(=O)[C@H](Cc1ccc(OP(=O)(O)O)cc1)NC(=O)CNC(=O)[C@H](CC(=O)O)NC(=O)[C@@H](NC(=O)[C@@H](N)CCC(=O)O)[C@@H](C)O)C(C)C)C(=O)N[C@H](C(=O)N[C@@H](CS)C(=O)N[C@@H](CO)C(=O)N[C@@H](CC(=O)O)C(=O)O)[C@@H](C)O [ErbB2 pY1127] | 1520 nM | 5510 nM | 800 nM | 1610 nM | 130 nM | 730 nM | 190 nM | 90 nM | – | – | –
2 | CC[C@H](C)[C@H](NC(=O)[C@H](CC(N)=O)NC(=O)[C@H](CC(N)=O)NC(=O)[C@H](CCCCN)NC(=O)[C@H](CC(C)C)NC(=O)[C@H](Cc1ccc(OP(=O)(O)O)cc1)NC(=O)[C@H](CCC(=O)O)NC(=O)[C@H](C)NC(=O)[C@H](CCCCN)NC(=O)CNC(=O)[C@H](CC(C)C)NC(=O)[C@@H](NC(=O)[C@H](CC(N)=O)NC(=O)[C@H](C)NC(=O)[C@@H](N)Cc1ccccc1)[C@@H](C)O)C(=O)N[C@@H](CC(C)C)C(=O)N[C@@H](CO)C(=O)N[C@@H](CC(=O)O)C(=O)O [ErbB4 pY1221 (18-mer)] (HELM PEPTIDE1{F.A.N.T.L.G.K.A.E.[O=C([C@H](Cc1ccc(OP(=O)(O)O)cc1)N[*:1])[*:2]].L.K.N.N.I.L.S.D}$$$$V2.0) | – | – | – | – | – | – | – | – | 230 nM | 320 nM | 64540 nM
